These results are taken from patent US6809091B1, “Substances capable of inducing apoptosis” (Takara Bio Inc., priority 1998, dated 2004).

The subject of data set [1] is hIGF-1 production in Hs68 cells. The data set is described as follows: induction of hIGF-1 production, ELISA. As to conditions: for time at which the inducing activity of the hIGF production became maximum: 100 μM or more. The class given is cell-based, human. The method, then:
Hs 68 cells (ATCC CRL-1635) which were human […] were incubated on a D-MEM medium (manufactured by Gibco BRL) containing 10% of fetal bovine serum (FBS manufactured by BioWhittaker) at 37° C. in the presence of 5% of CO2 until the cells were saturated in the culture medium, a trypsin-EDTA solution (manufactured by BioWhittaker) was suspended in the above medium to make 3×10^5 cells/ml and each 200 μl of the suspension were placed in each well of a 96-well microtiter plate. After five days from the incubation, the medium was discarded at the stage where the cells were almost saturated in the culture medium and a medium containing 5, 10, 20, 40, 100 or 200 μM of 4,5-dihydroxy-2-pentenal or 4-hydroxy-2-cyclopenten-1-one was added thereto. A time course of 96 hours was adopted and, every 24 hours, the supernatant liquid of the incubated medium was recovered and the influence of 4,5-dihydroxy-2-pentenal and 4-hydroxy-2-cyclopenten-1-one on the induction of hIGF-1 production in Hs68 cells was measured using an ELISA-kit for hIGF-1 (manufactured by Diagnostic System Labo).

In another data set the test system is human FGF-β. The data set is described as follows: cytokine production in DSEK cells, ELISA. The format is cell-based. As to conditions: DSEK cell incubation, supernatant every 24 hours. The procedure:
Now, in the DSEK cell incubation, 150 μl/well of the supernatant liquid of the medium were recovered every 24 hours and influence of 4-hydroxy-2-cyclopenten-1-one or 4,5-dihydroxy-2-pentenal on the production of cytokines (human TGF-β, human FGF-β, human IL-1α and human IL-10) was measured using an ELISA-kit specific to each of the cytokine (the kit manufactured by INTERGEN or human FGF-β and human IL-10; and the kit manufactured by Promega for human IL-1α and human TGF-β).
Background: An ELISA detects its analyte on a solid surface through an enzyme-linked reagent.

Data set [2] has as its system heat shock protein of 70 kDa in HL-60. The data set is described as follows: induction of heat shock protein of 70 kDa, SDS-PAGE and blotting. The format is cell-based, human. More on the design: key: “−” means no induction; “±” means a little induction; “+” shows the intensity of induction and the more the “+”, the more the induction; ++: “+” shows the intensity of induction and the more the “+”, the more the induction; +++: “+” shows the intensity of induction and the more the “+”, the more the induction. As to conditions: six hours. The method, then:
Each 5 ml of an RPMI 1640 medium containing 10% of FBS containing 2×10^5 cells/ml of HL-60 (ATCC CCL-240) were placed in each well of a six-well plate, incubated at 37° C. for 24 hours in the presence of 5% CO2, then 4,5-dihydroxy-2-pentenal was added to make the final concentration 0, 12.5, 25, 50 or 100 μM or 4-hydroxy-2-cyclopenten-1-one was added to make the final concentration 0, 2.5, 5, 10, 20, 40 or 80 μM and the mixture was incubated for six hours more.
After completion of the incubation, cell numbers were counted and then the cells were recovered by centrifugation and washed with PBS to prepare the cells treated with each of the samples. In addition, cells which were heated at 45° C. for five minutes followed by subjecting to the same incubation were prepared as well.
The cells treated as such were then subjected to an SDS-PAGE according to a method mentioned in “Molecular Cloning” (Cold Spring Harbor Laboratory Press, 1989). Thus, the cells were suspended in an SDS-PAGE sample buffer to make the concentration 2.5×10^6 cells/ml, the resulting cell suspension was treated at 100° C. for ten minutes, each 5 μl thereof were applied to two sheets of SDS-PAGE gel (a 5% stacking gel and a 10% separation gel) and an electrophoresis was carried out. One of the gels was stained with Coomassie while another was subjected to a blotting to polyvinylidene difluoride transfer membrane (Immobilon™ manufactured by MILLIPORE; catalog no. IPVH000-10). This membrane was subjected to a blocking overnight at 4° C. using Block Ace (manufactured by Dainippon Pharmaceutical; catalog no. UK-B25).
The membrane which was subjected to a blocking as such was made to react with monoclonal antibody HSP 72/73 (Ab-1) (manufactured by Oncogene Research Products; catalog no. HSP01) which specifically reacted with heat-induced heat shock protein of 70 kDa, washed with TBS containing 0.05% Tween 20 and further washed with TBS. After that, it was made to react with peroxidase-compounded secondary antibody HRP-Rabbit Anti Mouse IgG (H+L) (manufactured by ZYMED Laboratories; catalog no. 61-6520) and washed as same as in the previous operation. The membrane which was made to react with the primary antibody and the secondary antibody as such was made to react with RENAISSANCE™ (a chemiluminol reagent manufactured by Dupont NEN, catalog no. NEL-100) and then exposed to X-ray film to confirm the induction of the heat shock protein of 70 kDa.

The next data set concerns mice. The data set is described as follows: acute toxicity, single oral administration. The format is in vivo. As to conditions: single oral administration of 100 mg/kg. The procedure: When a physiologically active effective dose of the heat-treated product of the present invention and partially purified product thereof and the compound of the present invention are/is administered to mice, no acute toxicity is noted.

Molecules are shown by their SMILES.

Turning to `O=C1C=CC(O)C1` (centres unmarked) [4-hydroxy-2-cyclopenten-1-one], the hIGF-1 inducing activity entry in data set [1] is given as “stronger than that of 4,5-dihydroxy-2-pentenal”. In addition, the “Inducing Activity of the hIGF-1 Production” value turned out to be 0 ng/mL in data set [1] (40 μM, 24 hours); 0 ng/mL in data set [1] (40 μM, 48 hours); 0 ng/mL in data set [1] (40 μM, 72 hours); 0 ng/mL in data set [1] (40 μM, 96 hours); 39.9 ng/mL in data set [1] (100 μM, 24 hours); 10.0 ng/mL in data set [1] (100 μM, 48 hours). In addition, the “Inducing Activity of the hIGF-1 Production” value in data set [1] (100 μM, 72 hours) was 9.6 ng/mL; in data set [1] (100 μM, 96 hours), 4.4 ng/mL; in data set [1] (200 μM, 24 hours), 37.9 ng/mL; in data set [1] (200 μM, 48 hours), 10.4 ng/mL; in data set [1] (200 μM, 72 hours) it was 9.9 ng/mL; in data set [1] (200 μM, 96 hours), 4.2 ng/mL. The “time at which the inducing activity of the hIGF production became maximum” value in data set [1] was found to be 24 h. In addition, the “production of human FGF-β” value in the data set on human FGF-β was “inhibited”. The “intensity of induction of heat shock protein of 70 kDa” value in data set [2] (HL-60, 5 μM) was “±”; in data set [2] (HL-60, 20 μM) it was “+++”; in data set [2] (HL-60, 40 μM), “++”; in data set [2] (HL-60, 80 μM), “±”. In addition, in the data set with mice, the death result is on record as “no case of death”.

In the case of `Nc1nc2c(ncn2C2C=CC(=O)C2)c(=O)[nH]1` (centres unmarked) [4-(9-guaninyl)-2-cyclopenten-1-one], in the data set on human FGF-β, the “production of human FGF-β” value is reported as “inhibited”.

As for `O=CC=CC(O)CO` (single isomer, unassigned) [4,5-dihydroxy-2-pentenal, trans-4,5-dihydroxy-2-pentenal], the “Inducing Activity of the hIGF-1 Production” value in data set [1] (40 μM, 24 hours) came to 0 ng/mL; in data set [1] (40 μM, 48 hours) it was 0 ng/mL; in data set [1] (40 μM, 72 hours), 0 ng/mL; in data set [1] (40 μM, 96 hours), 0 ng/mL; in data set [1] (100 μM, 24 hours), 15.3 ng/mL; in data set [1] (100 μM, 48 hours), 10.0 ng/mL. The “Inducing Activity of the hIGF-1 Production” value in data set [1] (100 μM, 72 hours) was 5.2 ng/mL; in data set [1] (100 μM, 96 hours) it was 4.6 ng/mL; in data set [1] (200 μM, 24 hours), 11.3 ng/mL; in data set [1] (200 μM, 48 hours) it was 11.1 ng/mL; in data set [1] (200 μM, 72 hours) it was 9.9 ng/mL; in data set [1] (200 μM, 96 hours), 4.5 ng/mL. The “time at which the inducing activity of the hIGF production became maximum” value in data set [1] came to 24 h. Further, the “intensity of induction of heat shock protein of 70 kDa” value in data set [2] (HL-60, 25 μM) is “±”; in data set [2] (HL-60, 50 μM), “+++”; in data set [2] (HL-60, 100 μM), “−”. For the same compound, in the data set on mice, the death entry is “no case of death”.
